Data set [1] can be described thus: Thermodynamic solubility of the compound in fasted state simulated intestinal fluid. The data set is classed as ADME. To be noted: read-out: Therm_solubility.
Data set [2] can be described thus: Kinetic solubility of the compound by chemiluminescent nitrogen detection assay.
Data set [3] can be described thus: Lipophilicity, logD of the compound at pH 7.4 by chromatography. The conditions noted are these: buffer. The data set is classed as physicochemical.
The nature of data set [4]: Clearance in human liver microsomes. The class given is ADME. In general terms: Liver microsomes are a subcellular fraction often used to study metabolism.
Data set [5] addresses T1, Platelet-activating factor acetylhydrolase (Homo sapiens, UniProt Q13093).
T1 sequence (Q13093 whole entry): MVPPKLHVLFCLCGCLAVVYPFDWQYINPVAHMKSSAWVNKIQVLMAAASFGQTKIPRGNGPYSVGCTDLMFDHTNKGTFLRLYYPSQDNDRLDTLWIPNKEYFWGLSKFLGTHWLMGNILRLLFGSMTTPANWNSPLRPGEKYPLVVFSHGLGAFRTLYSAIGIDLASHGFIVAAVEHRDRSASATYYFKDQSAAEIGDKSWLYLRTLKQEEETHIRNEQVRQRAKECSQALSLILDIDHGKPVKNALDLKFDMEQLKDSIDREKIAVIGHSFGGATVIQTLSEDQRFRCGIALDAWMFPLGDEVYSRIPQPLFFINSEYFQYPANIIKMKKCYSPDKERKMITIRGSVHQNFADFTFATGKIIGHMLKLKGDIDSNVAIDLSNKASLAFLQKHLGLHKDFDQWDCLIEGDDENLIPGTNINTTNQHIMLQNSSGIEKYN
The experiment in a line: Inhibition of human recombinant LpPLA2.

Data set [6] can be described thus: Permeability of the compound at pH 7.4 by PAMPA. The class given is ADME. To be noted: read-out: permeability.

pIC50: −log10 of the molar value. In brackets after ≈: the same amount, converted by molar mass.

Broadly, the kinetic solubility is solubility judged after dilution from a stock solution rather than from solid. Turning to `CCN(CC)CCN(Cc1ccc(-c2ccc(C(F)(F)F)cc2)cc1)C(=O)Cn1c(SCc2ccc(F)cc2)nc(=O)c2c1CCC2` [DARAPLADIB], the solubility thermodynamic in data set [1] is 399 µg/mL (≈ 598 µM). Further, the solubility (kinetic) in data set [2] stood at 8 µM (≈ 5.33 µg/mL).

One may read the chromatographic logD as a lipophilicity value derived from retention on a column. Higher therefore signals higher lipophilicity. On to `COCCN1CCC(N(CC23CC(c4ccc(C(F)(F)F)cc4)(C2)C3)C(=O)Cn2c(SCc3cccc(F)c3F)cc(=O)c3ccccc32)CC1`, for which the solubility thermodynamic in data set [1] is 635 µg/mL (≈ 875 µM). The molecule further returned a kinetic solubility in data set [2] of 32 µM (≈ 23.2 µg/mL). The same molecule returned a chromatographic logD in data set [3] of 7.06. In data set [4], this molecule showed a CLH of 0.76 mL/min/g.

Take `COCCN1CCC(N(Cc2ccc(-c3ccc(C(F)(F)F)cc3)cc2)C(=O)Cn2c(SCc3cccc(F)c3F)cc(=O)c3ccccc32)CC1` [RILAPLADIB]: the solubility thermodynamic in data set [1] was 203 µg/mL (≈ 276 µM). Also, in data set [2], the kinetic solubility was under 1 µM. This molecule also displayed a chromatographic logD in data set [3] of 6.74.

In general, pIC50 refers to the IC50 on a negative log10 scale, so that one unit is a factor of ten. Regarding `CCN(CC)CCN(CC12CC(c3ccc(C(F)(F)F)cc3)(C1)C2)C(=O)Cn1c(SCc2ccc(F)cc2)nc(=O)c2c1CCC2`, in data set [1], the solubility thermodynamic is over 1000 µg/mL. This molecule showed a solubility (kinetic) in data set [2] of 74 µM (≈ 48.6 µg/mL). Moreover, in data set [5], the pIC50 is 9.40. Besides, in data set [3], the chromatographic logD amounted to 7. The same molecule came in with a CLH in data set [4] of 1.22 mL/min/g. The Papp in data set [6] came to 70.5 ×10⁻⁶ cm/s.

Values taken from ChEMBL document CHEMBL3870356, “Investigation of a Bicyclo[1.1.1]pentane as a Phenyl Replacement within an LpPLA2 Inhibitor” (ACS Med Chem Lett, 2017).
